# Data from US20190194148A1, “TETRAZOLE-CONTAINING 1,2-CYCLOPROPANE-CARBOXAMIDES” (Bayer Pharma Aktiengesellschaft, priority 2017, published 2019).
# Where two headings read alike, the source gives them in different places.
# Key:
# [1] = target: T1, native human B1 receptors (Homo sapiens, UniProt P46663); assay: Calcium flux assay (FLIPR) with IMR-90 human fibroblasts for Bradykinin B1 receptor antagonist; format: cell-based; details: IMR-90 human foetal lung fibroblasts after induction with human IL-1; 0.1% BSA in assay buffer; read-out: hB1 IC50 IMR90
# T1 construct: which express native human B1 receptors after induction with human IL-1; Coriell Institute; host or cells: IMR-90 human foetal lung fibroblasts, induced with human IL-1beta
# T1 sequence (P46663 1-353): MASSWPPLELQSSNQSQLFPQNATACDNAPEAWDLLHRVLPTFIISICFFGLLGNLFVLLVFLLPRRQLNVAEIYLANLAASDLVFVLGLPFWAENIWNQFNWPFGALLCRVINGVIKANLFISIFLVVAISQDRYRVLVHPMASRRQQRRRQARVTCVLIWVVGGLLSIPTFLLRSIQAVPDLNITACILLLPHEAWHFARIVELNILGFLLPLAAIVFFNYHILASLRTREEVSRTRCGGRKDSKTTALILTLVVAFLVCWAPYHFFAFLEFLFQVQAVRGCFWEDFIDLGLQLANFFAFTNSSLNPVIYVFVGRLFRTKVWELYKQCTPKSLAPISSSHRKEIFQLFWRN
# Protocol: Calcium Flux Assay (FLIPR) with Human Fibroblasts for Bradykinin B1 Receptor Antagonist (hB1 IMR-90 IC50)
# The Calcium flux Assay was carried out utilising IMR-90 human foetal lung fibroblasts (American Type Culture Collection, Rockville, Md.; and Coriell Institute, Camden, N.J.), which express native human B1 receptors after induction with human IL-1[…].
# The fibroblasts were cultured in complete growth media comprised of Dulbecco's modified Eagle's medium (DMEM; Sigma) containing 10% foetal bovine serum, 4 mM L-glutamine, and 1% nonessential amino acids. The cells were maintained in a humidified atmosphere with 5% CO2 at 37° C. and were sub-cultured at a ratio of 1:3, every other day.
# For the assay, IMR-90 fibroblasts were harvested using TrypLE Express (GIBCO/Invitrogen) and seeded into 384-well plates (Corning Cellbinding Surface, Cat. 3683) at a density of 15000 cells/well. The following day, cells were treated with 0.35 ng/mL human IL-1[…] in 10% FBS/MEM for 3 h to up-regulate B1 receptors. Induced cells were loaded with fluorescent calcium indicator by incubation with 2.5 μM Fluo-4/AM (Invitrogen) at 37° C., 5% CO2 for 2 h in the presence of 2.5 mM probenecid in 1% FBS/MEM. Extracellular dye was removed by washing with assay buffer (2.5 mM probenecid and 0.1% BSA in 20 mM HEPES/HBSS without bicarbonate or phenol red, pH 7.5). Example compounds were assayed at 8 concentrations in triplicate. […] A peptide antagonist Lys-(Des-Arg-Leu)-Bradykinin (Bachem, Brackley) at 20 µM was used to determine the full inhibition as control. IC50 values were determined by the same way described for the FLIPR assay with recombinant cells.
# human B1 receptor = target: T2, human B1 receptor (Homo sapiens, UniProt P46663); assay: Calcium flux assay (FLIPR) with recombinant CHO-K1 cells expressing human B1 receptor; format: cell-based
# T2 construct: host or cells: CHO-K1
# T2 sequence (P46663 1-353): T1 sequence (P46663 1-353)
# Outline: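 Indicator-loaded CHO-K1 cells expressing human B1 receptor were pre-incubated with compound (8 concentrations, triplicate, 1% DMSO) for 30 min at 28° C, in assay buffer with or without 0.1% BSA (hB1 IC50 vs free IC50). They were then challenged with Lys-(Des-Arg)-bradykinin from plates at 3.5×EC90, with peak FLIPR fluorescence read at 538 nm. IC50 was fitted from % response between DMSO and full block by 20 μM Lys-(Des-Arg-Leu)-bradykinin.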
# IL-6 secretion = assay: Bradykinin B1 receptor agonist-induced secretion of IL-6 in human IMR-90 cells; format: cell-based; details: IMR-90 cells stimulated with 0.1 μM Lys-[Des-Arg9]Bradykinin and 0.1 μM Sar-[D-Phe8]-des-Arg9-Bradykinin for 5 hours
# Text: (§1) Inhibitory Activity on Bradykinin B1 Receptor Agonist-Induced Secretion of IL-6 and IL-8 in Human IMR-90 Cells
# (§2) The effect of the example compounds on cytokine secretion has been investigated in the human fetal lung fibroblast IMR-90 cell line. Here the induction of the cytokine secretion was induced by the Bradykinin B1 receptor agonists Lys-[Des-Arg9]Bradykinin and Sar-[D-Phe8]-des-Arg9-Bradykinin leading to the activation of the Bradykinin B1 receptor-driven signaling pathway.
# (§3) IMR-90 cells were cultured in Eagle's Minimum Essential Medium (EMEM) containing 2 mM L-glutamine, 1 g/L glucose, 1.5 g/L NaHCO3, 1 mM sodium pyruvate and non-essential amino acids (ATCC, 30-2003™) supplemented with 10% FBS (Biochrom, S0615) and 50 U/mL Penicillin, 50 μg/mL Streptomycin (PAA, P11-010). The assay was performed in EMEM and a cell density of […] IMR-90 cells/96-well. The example compounds have been serial diluted in 100% DMSO and evaluated at 8 different concentrations within the range of 3 nM and 10 μM and a final DMSO concentration of 0.4%. […] The amount of IL-6 and IL-8 in the supernatant was determined using the Human Prolnflammatory 9-Plex (MSD, K15007B) according to manufacturer's instruction. The cell viability was measured using the CellTiter-Glo Luminescent Assay (Promega, G7571) following the manufacturers protocol. […]
# IL-8 secretion = assay: Bradykinin B1 receptor agonist-induced secretion of IL-8 in human IMR-90 cells; format: cell-based; details: IMR-90 cells stimulated with 0.1 μM Lys-[Des-Arg9]Bradykinin and 0.1 μM Sar-[D-Phe8]-des-Arg9-Bradykinin for 5 hours
# Text: as §1, §2, §3
# IMR-90 cells = assay: Cell viability of stimulated IMR-90 cells (CellTiter-Glo); format: cell-based, human
# Protocol: IMR-90 cells were cultured in Eagle's Minimum Essential Medium (EMEM) containing 2 mM L-glutamine, 1 g/L glucose, 1.5 g/L NaHCO3, 1 mM sodium pyruvate and non-essential amino acids (ATCC, 30-2003™) supplemented with 10% FBS (Biochrom, S0615) and 50 U/mL Penicillin, 50 μg/mL Streptomycin (PAA, P11-010). The assay was performed in EMEM and a cell density of […] IMR-90 cells/96-well. The example compounds have been serial diluted in 100% DMSO and evaluated at 8 different concentrations within the range of 3 nM and 10 μM and a final DMSO concentration of 0.4%. The IMR-90 cells have been incubated with the respective concentration of the example compound for 30 min. The enhanced secretion of IL-6 and IL-8 was induced by the stimulation of these cells with 0.1 μM Lys-[Des-Arg9]Bradykinin (Tocris, 3225) and 0.1 μM Sar-[D-Phe8]-des-Arg9-Bradykinin (Tocris, 3230) for 5 hours at 37° C. and 5% CO2. Further, cells have been treated with Lys-[Des-Arg9] Bradykinin and Sar-[D-Phe8]-des-Arg9-Bradykinin as neutral control and with 0.1% DMSO as inhibitor control. The amount of IL-6 and IL-8 in the supernatant was determined using the Human Prolnflammatory 9-Plex (MSD, K15007B) according to manufacturer's instruction. The cell viability was measured using the CellTiter-Glo Luminescent Assay (Promega, G7571) following the manufacturers protocol.
# [2] = absence of 0.1% BSA in assay buffer, read-out: hB1 free IC50
# [3] = presence of 0.1% BSA in assay buffer, read-out: hB1 IC50
IC50 [1],IC50 (human B1 receptor; [2]),IC50 (human B1 receptor; [3]),IC50 (IL-6 secretion),IC50 (IL-8 secretion),SMILES,effect on the cell viability (IMR-90 cells)
6 nM,5 nM,15 nM,,,"CCOc1ccc(-c2ccc(NC(=O)C3CC3c3cccc(C)c3)cc2-c2nnn[nH]2)cn1 (racemic) [Example 18, N-[4-(6-Ethoxypyridin-3-yl)-3-(1H-tetrazol-5-yl)phenyl]-2-(3-methylphenyl)cyclopro-panecarboxamide]",
44 nM,12 nM,,,,"CCOc1ccc(-c2c(F)cc(NC(=O)C3CC3c3ccc(Cl)cc3)cc2-c2nnn[nH]2)cn1 (racemic) [Example 61, 2-(4-chlorophenyl)-N-[4-(6-ethoxypyridin-3-yl)-3-fluoro-5-(1H-tetrazol-5-yl)phenyl]cyclopropane-carboxamide]",
8 nM,12 nM,8 nM,,,"COc1ccc(-c2ccc(NC(=O)C3CC3c3cccc(Cl)c3)cc2-c2nnn[nH]2)cc1OC (racemic) [Example 8, 2-(3-chlorophenyl)-N-[3′,4′-dimethoxy-2-(1H-tetrazol-5-yl)biphenyl-4-yl]cyclo-propanecarboxamide]",
63 nM,15 nM,37 nM,,,"CCOc1ccc(-c2cc(C)c(NC(=O)C3CC3c3ccc(Cl)cc3)cc2-c2nnn[nH]2)cn1 (racemic) [Example 64, 2-(4-Chlorophenyl)-N-[4-(6-ethoxypyridin-3-yl)-2-methyl-5-(1H-tetrazol-5-yl)phenyl]cyclopropane-carboxamide]",
8 nM,3 nM,11 nM,,,"CCOc1ccc(-c2cc(O)c(NC(=O)C3CC3c3cccc(C)c3)cc2-c2nnn[nH]2)cn1 (racemic) [Example 51, N-[4-(6-Ethoxypyridin-3-yl)-2-hydroxy-5-(1H-tetrazol-5-yl)phenyl]-2-(3-methylphenyl)cyclopro-panecarboxamide]",
25 nM,,5 nM,,,"COc1ccc(-c2ccc(NC(=O)C3CC3C3CCC(C)CC3)cc2-c2nnn[nH]2)cc1OC (racemic) [Example 15, N-[3′,4′-dimethoxy-2-(1H-tetrazol-5-yl)biphenyl-4-yl]-2-(4-methylcyclohexyl)cyclo-propanecarboxamide]",
20 nM,,27 nM,,,"COc1ccc(-c2ccc(NC(=O)C3CC3C3CCCCC3)cc2-c2nnn[nH]2)cc1OC (single isomer, unassigned) [Example 14, 2-Cyclohexyl-N-[3′,4′-dimethoxy-2-(1H-tetrazol-5-yl)biphenyl-4-yl]cyclopropane-carboxamide]",
,10 nM,25 nM,192 nM,164 nM,"CC(C)(C)c1cn(-c2ccc(NC(=O)C3CC3c3ccc(Cl)cc3)cc2-c2nnn[nH]2)cn1 (racemic) [Example 48, N-[4-(4-tert-butyl-1H-imidazol-1-yl)-3-(1H-tetrazol-5-yl)phenyl]-2-(4-chlorophenyl)cyclo-propanecarboxamide]",no effect
22 nM,14 nM,22 nM,,,"CCOc1ccc(-c2ccc(NC(=O)C3(C)CC3c3ccccc3)cc2-c2nnn[nH]2)cn1 (racemic) [Example 21, [4-(6-Ethoxypyridin-3-yl)-3-(1H-tetrazol-5-yl)phenyl]-1-methyl-2-phenylcyclopropane-carboxamide]",
12 nM,5 nM,97 nM,,,"CCOc1ccc(-c2ccc(NC(=O)C3CC3c3ccc(Cl)cc3)cc2-c2nnn[nH]2)cn1 (racemic) [Example 17, 2-(4-Chlorophenyl)-N-[4-(6-ethoxypyridin-3-yl)-3-(1H-tetrazol-5-yl)phenyl]cyclopro-panecarboxamide]",
10 nM,6 nM,,,,"CCOc1ccc(-c2ccc(NC(=O)C3CC3c3cccc(Cl)c3)cc2-c2nnn[nH]2)cn1 (racemic) [Example 19, 2-(3-Chlorophenyl)-N-[4-(6-ethoxypyridin-3-yl)-3-(1H-tetrazol-5-yl)phenyl]cyclopro-panecarboxamide]",
9 nM,,10 nM,,,"Cc1cccc(C2CC2C(=O)Nc2ccc(-c3ccc(OC(C)C)nc3)c(-c3nnn[nH]3)c2)c1 (racemic) [Example 78, N-[4-(6-isopropoxypyridin-3-yl)-3-(1H-tetrazol-5-yl)phenyl]-2-(3-methylphenyl)cyclopro-panecarboxamide]",
78 nM,41 nM,37 nM,,,"Cc1cccc(C2CC2C(=O)Nc2cc(-c3nnn[nH]3)c(-c3ccc(C(F)(F)F)nc3)cc2O)c1 (racemic) [Example 52, N-{2-Hydroxy-5-(1H-tetrazol-5-yl)-4-[6-(trifluoromethyl)pyridin-3-yl]phenyl}-2-(3-methylphenyl)cyclopro-panecarboxamide]",
22 nM,19 nM,10 nM,,,"COc1ccc(-c2cc(F)c(NC(=O)C3CC3c3cccc(C)c3)cc2-c2nnn[nH]2)cc1 (racemic) [Example 55, N-[5-Fluoro-4′-methoxy-2-(1H-tetrazol-5-yl)biphenyl-4-yl]-2-(3-methylphenyl)cyclopro-panecarboxamide]",
